{
  "source": "ChEMBL document CHEMBL5634092",
  "about": "“Design, synthesis, and biological evaluation of novel HDAC/CD13 dual inhibitors for the treatment of cancer” (Eur J Med Chem, 2023)",
  "key": {"Histone deacetylase 3": {"target": "Histone deacetylase 3 (Homo sapiens, UniProt O15379)", "sequence (O15379 whole entry)": "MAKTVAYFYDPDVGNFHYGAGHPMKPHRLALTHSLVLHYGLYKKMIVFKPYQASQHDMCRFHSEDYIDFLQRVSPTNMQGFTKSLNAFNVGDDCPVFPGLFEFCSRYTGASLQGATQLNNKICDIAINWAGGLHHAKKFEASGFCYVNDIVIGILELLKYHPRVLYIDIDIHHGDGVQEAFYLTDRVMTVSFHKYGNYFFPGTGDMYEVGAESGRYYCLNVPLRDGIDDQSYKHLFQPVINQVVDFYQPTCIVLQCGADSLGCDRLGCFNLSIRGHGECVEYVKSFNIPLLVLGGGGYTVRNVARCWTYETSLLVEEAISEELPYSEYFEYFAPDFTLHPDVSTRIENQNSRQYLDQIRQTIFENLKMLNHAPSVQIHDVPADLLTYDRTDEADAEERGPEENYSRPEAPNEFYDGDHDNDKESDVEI", "test": "Inhibition of human HDAC3 using Boc-Lys (acetyl)-AMC as substrate incubated for 1 hr followed by substrate addition and further incubated for 2 hrs by fluorescence assay"}, "Histone deacetylase 5": {"target": "Histone deacetylase 5 (Homo sapiens, UniProt Q9UQL6)", "sequence (Q9UQL6 whole entry)": "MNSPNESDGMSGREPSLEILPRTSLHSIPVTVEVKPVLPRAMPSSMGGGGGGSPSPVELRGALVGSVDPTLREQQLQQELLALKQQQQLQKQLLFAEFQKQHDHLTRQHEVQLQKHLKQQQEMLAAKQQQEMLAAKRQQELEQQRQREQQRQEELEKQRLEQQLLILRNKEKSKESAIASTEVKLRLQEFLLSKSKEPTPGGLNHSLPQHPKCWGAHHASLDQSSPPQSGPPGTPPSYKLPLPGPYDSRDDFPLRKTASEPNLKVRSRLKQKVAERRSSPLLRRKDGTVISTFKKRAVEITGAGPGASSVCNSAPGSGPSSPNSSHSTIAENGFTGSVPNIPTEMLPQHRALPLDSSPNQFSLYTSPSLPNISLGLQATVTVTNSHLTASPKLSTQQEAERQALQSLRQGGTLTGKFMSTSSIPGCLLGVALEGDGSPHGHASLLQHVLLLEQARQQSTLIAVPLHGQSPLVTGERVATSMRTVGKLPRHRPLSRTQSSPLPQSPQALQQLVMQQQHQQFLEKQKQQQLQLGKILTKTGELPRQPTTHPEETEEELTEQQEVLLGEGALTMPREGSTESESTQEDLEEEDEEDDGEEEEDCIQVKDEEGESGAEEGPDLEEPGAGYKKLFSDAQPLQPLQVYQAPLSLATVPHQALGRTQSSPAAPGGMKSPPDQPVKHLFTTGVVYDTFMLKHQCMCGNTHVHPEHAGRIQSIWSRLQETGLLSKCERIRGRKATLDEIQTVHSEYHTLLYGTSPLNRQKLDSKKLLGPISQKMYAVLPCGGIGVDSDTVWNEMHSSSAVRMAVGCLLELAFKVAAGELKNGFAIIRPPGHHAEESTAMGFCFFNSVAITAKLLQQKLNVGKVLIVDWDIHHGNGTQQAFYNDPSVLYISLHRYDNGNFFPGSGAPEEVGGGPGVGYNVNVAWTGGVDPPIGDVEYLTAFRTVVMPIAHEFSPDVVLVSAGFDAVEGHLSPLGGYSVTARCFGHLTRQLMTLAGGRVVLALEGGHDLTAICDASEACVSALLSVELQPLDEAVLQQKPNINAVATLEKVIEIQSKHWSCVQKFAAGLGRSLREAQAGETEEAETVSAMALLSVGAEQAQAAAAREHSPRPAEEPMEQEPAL", "test": "Inhibition of human HDAC5 using Boc-Lys (tri-fluoroacetyl)-AMC as substrate incubated for 1 hr followed by substrate addition and further incubated for 2 hrs by fluorescence assay"}, "[1]": {"target": "T1, Protein deacetylase HDAC6 (Homo sapiens, UniProt Q9UBN7)", "T1 sequence (Q9UBN7 whole entry)": "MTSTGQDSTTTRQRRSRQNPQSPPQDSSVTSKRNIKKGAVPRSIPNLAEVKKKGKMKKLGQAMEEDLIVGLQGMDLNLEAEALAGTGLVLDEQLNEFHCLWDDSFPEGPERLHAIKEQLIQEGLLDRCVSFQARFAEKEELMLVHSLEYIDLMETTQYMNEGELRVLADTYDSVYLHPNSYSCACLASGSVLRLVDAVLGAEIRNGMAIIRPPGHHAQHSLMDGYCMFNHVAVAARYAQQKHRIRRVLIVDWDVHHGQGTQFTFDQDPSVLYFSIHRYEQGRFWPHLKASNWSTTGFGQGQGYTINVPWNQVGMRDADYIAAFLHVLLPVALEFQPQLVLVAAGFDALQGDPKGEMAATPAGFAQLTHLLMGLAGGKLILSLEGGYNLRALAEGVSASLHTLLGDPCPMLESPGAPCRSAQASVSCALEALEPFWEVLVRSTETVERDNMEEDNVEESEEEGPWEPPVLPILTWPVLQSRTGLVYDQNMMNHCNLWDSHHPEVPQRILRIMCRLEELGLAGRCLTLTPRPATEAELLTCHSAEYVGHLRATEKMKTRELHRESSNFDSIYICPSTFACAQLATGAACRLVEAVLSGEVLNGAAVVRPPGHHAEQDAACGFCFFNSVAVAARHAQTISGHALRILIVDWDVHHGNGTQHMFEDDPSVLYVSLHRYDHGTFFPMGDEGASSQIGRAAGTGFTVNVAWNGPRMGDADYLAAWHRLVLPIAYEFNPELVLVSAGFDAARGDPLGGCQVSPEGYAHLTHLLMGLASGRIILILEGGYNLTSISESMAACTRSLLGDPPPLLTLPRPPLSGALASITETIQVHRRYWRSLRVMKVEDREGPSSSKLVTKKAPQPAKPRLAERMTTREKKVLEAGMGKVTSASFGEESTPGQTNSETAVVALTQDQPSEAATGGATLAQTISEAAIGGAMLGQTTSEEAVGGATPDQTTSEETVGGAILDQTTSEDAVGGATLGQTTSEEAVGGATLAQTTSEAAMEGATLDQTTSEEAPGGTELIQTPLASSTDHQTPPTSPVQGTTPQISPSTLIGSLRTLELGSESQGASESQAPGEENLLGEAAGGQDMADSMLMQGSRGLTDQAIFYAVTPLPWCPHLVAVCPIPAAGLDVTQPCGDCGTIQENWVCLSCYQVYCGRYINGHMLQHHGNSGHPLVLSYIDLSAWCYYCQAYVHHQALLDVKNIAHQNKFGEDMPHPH", "test": "Inhibition of human HDAC6 using Boc-Lys (acetyl)-AMC as substrate incubated for 1 hr followed by substrate addition and further incubated for 2 hrs by fluorescence assay"}, "[2]": {"test": "Stability of compound in artificial intestinal juice at 0.4 mg/mL measured after 24 hrs by HPLC analysis", "assay_type": "ADME", "conditions": "simulated gi fluid"}, "Histone deacetylase 11": {"target": "T2, Histone deacetylase 11 (Homo sapiens, UniProt Q96DB2)", "T2 sequence (Q96DB2 whole entry)": "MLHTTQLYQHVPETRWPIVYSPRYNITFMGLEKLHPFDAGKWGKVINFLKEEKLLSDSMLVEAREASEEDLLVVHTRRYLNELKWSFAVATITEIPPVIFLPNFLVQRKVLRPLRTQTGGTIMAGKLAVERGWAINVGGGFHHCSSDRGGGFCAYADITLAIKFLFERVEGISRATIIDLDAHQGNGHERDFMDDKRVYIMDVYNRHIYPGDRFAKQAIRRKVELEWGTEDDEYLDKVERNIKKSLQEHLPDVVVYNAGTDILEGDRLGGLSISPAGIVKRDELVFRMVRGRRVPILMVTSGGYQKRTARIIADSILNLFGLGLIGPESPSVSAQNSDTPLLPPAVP", "test": "Inhibition of human HDAC11 using Boc-Lys (tri-fluoroacetyl)-AMC as substrate incubated for 1 hr followed by substrate addition and further incubated for 2 hrs by fluorescence assay"}, "Histone deacetylase 7": {"target": "T3, Histone deacetylase 7 (Homo sapiens, UniProt Q8WUI4)", "T3 sequence (Q8WUI4 whole entry)": "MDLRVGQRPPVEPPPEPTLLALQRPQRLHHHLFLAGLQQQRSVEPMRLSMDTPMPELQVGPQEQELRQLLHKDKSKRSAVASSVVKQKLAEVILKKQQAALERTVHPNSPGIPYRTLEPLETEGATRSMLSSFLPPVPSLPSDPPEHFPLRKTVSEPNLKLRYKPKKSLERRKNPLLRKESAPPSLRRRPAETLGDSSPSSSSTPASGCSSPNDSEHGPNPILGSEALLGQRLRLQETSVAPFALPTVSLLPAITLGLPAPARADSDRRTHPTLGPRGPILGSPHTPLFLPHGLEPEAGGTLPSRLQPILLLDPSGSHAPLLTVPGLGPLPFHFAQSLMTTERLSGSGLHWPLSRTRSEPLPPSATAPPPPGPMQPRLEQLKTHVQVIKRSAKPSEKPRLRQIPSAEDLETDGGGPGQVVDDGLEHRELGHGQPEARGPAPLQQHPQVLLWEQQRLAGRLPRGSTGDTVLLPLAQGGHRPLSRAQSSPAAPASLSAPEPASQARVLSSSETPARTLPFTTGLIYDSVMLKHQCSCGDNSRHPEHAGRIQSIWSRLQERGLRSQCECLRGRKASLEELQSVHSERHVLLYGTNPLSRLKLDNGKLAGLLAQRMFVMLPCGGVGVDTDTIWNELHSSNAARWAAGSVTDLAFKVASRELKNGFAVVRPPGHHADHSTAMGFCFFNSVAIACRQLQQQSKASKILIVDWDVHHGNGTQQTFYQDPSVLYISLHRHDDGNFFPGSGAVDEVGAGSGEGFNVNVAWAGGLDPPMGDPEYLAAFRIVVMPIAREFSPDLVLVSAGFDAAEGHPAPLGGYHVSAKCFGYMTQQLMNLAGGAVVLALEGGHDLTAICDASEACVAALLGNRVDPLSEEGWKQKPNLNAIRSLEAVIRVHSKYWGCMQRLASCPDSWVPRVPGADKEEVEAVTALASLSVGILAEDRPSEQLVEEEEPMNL", "test": "Inhibition of human HDAC7 using Boc-Lys (tri-fluoroacetyl)-AMC as substrate incubated for 1 hr followed by substrate addition and further incubated for 2 hrs by fluorescence assay"}, "[3]": {"test": "Stability of compound in human plasma at […] measured after 24 hrs by HPLC analysis", "assay_type": "ADME, cell-free"}},
  "data": [
    {"smiles": "CCCNNC(=O)c1ccc(CNC(=O)[C@H](CC(C)C)NC(=O)[C@@H](O)[C@H](N)Cc2ccccc2)cc1.Cl", "values": [
      {"measurement": "IC50", "setting": "Histone deacetylase 3", "result": 0.02, "unit": "µM"},
      {"measurement": "IC50", "setting": "Histone deacetylase 5", "result": "> 10", "unit": "µM"},
      {"measurement": "IC50", "setting": "[1]", "result": "> 10", "unit": "µM"},
      {"measurement": "Stability", "setting": "[2]", "result": "Stable"},
      {"measurement": "IC50", "setting": "Histone deacetylase 11", "result": 1.24, "unit": "µM"},
      {"measurement": "IC50", "setting": "Histone deacetylase 7", "result": "> 10", "unit": "µM"},
      {"measurement": "Stability", "setting": "[3]", "result": "Stable"}
    ]}
  ]
}
